Experiments:
Test in all cases: Test D controlled growth environment herbicide test, pre- and postemergence
Type in all cases: in vivo
[1] = tested on: barley, winter (winter barley, Hordeum vulgare)
Outline: (§1)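 Rating is visual, 0–100 scale (100 = complete control), made against untreated plants 14–21 d after treatment in controlled growth conditions. Postemergence sprays went onto 1- to 4-leaf plants in peat medium; preemergence sprays onto silt loam after sowing; formulation included a surfactant.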

[2] = tested on: oilseed rape (Brassica napus)
Outline: as §1

[3] = tested on: bromegrass, downy (downy bromegrass, Bromus tectorum)
Outline: as §1

[4] = tested on: chamomile (scentless chamomile, Matricaria inodora)
Outline: as §1

[5] = tested on: field poppy (Papaver rhoeas)
Outline: as §1

[6] = tested on: canarygrass (Phalaris minor)
Outline: as §1

[7] = tested on: buckwheat, wild (wild buckwheat, Polygonum convolvulus)
Outline: as §1

[8] = tested on: galium (catchweed bedstraw, Galium aparine)
Outline: as §1

[9] = tested on: chickweed (common chickweed, Stellaria media)
Outline: as §1

[10] = tested on: blackgrass (Alopecurus myosuroides)
Outline: as §1

[11] = tested on: speedwell (bird's-eye speedwell, Veronica persica)
Outline: as §1

[12] = tested on: lambsquarters (Chenopodium album)
Outline: as §1

[13] = tested on: ryegrass, Italian (Italian ryegrass, Lolium multiflorum)
Outline: as §1

[14] = Postemergence, 31 g ai/ha, scale 0 to 100 (0 no effect, 100 complete control)
[15] = Postemergence, 125 g ai/ha, visual rating on scale 0 (no effect) to 100 (complete control), 14 to 21 d
[16] = Postemergence, 250 g ai/ha, scale 0 to 100 (0 no effect, 100 complete control)
[17] = Preemergence, 62 g ai/ha, scale 0 to 100 (0 no effect, 100 complete control)
[18] = Preemergence, 125 g ai/ha, scale 0 to 100 (0 no effect, 100 complete control)
[19] = Preemergence, 250 g ai/ha, scale 0 to 100 (0 no effect, 100 complete control)
[20] = postemergence, 62 g ai/ha, scale 0 to 100, 0 no effect, 100 complete control

**Q.** `Cc1ccc(-c2c(O)c(Br)nn(C)c2=O)c2ccccc12` [Compound 52] was tested. Which “Barley, Winter plant response rating” value [1, 14] did it give?
**A.** 0

**Q.** And the “Plant response rating, Barley, Winter” value [1, 15]?
**A.** 0

**Q.** And the “Plant response rating, Barley, Winter” value [1, 16]?
**A.** 0

**Q.** What about the “Plant response rating (scale of 0 to 100), Barley, Winter” value ([1]; Preemergence, 31 g ai/ha) of the same molecule?
**A.** 0

**Q.** And the “Plant response rating, Barley, Winter” value [1, 17]?
**A.** 0

**Q.** What about the “Plant response rating, Barley, Winter” value [1, 18] of the same molecule?
**A.** 0

**Q.** And the “Plant response rating, Barley, Winter” value [1, 19]?
**A.** 0

**Q.** And the “Plant response rating, Barley, Winter” value [1, 20]?
**A.** 0

**Q.** What about the “Oilseed Rape plant response rating” value [2, 14] of the same molecule?
**A.** 0

**Q.** And the “Plant response rating, Oilseed Rape” value [2, 15]?
**A.** 65

**Q.** And the “Plant response rating, Oilseed Rape” value [2, 16]?
**A.** 80

**Q.** And the “Plant response rating (scale of 0 to 100), Oilseed Rape” value ([2]; Preemergence, 31 g ai/ha)?
**A.** 0

**Q.** What about the “Plant response rating, Oilseed Rape” value [2, 17] of the same molecule?
**A.** 0

**Q.** What about the “Plant response rating, Oilseed Rape” value [2, 18] of the same molecule?
**A.** 0

**Q.** And the “Plant response rating, Oilseed Rape” value [2, 19]?
**A.** 55

**Q.** And the “Plant response rating, Oilseed Rape” value [2, 20]?
**A.** 5

**Q.** And the “Bromegrass, Downy plant response rating” value [3, 14]?
**A.** 0

**Q.** And the “Plant response rating, Bromegrass, Downy” value [3, 15]?
**A.** 0

**Q.** And the “Plant response rating, Bromegrass, Downy” value [3, 16]?
**A.** 10

**Q.** And the “Plant response rating (scale of 0 to 100), Bromegrass, Downy” value ([3]; Preemergence, 31 g ai/ha)?
**A.** 0

**Q.** What about the “Plant response rating, Bromegrass, Downy” value [3, 17] of the same molecule?
**A.** 0

**Q.** What about the “Plant response rating, Bromegrass, Downy” value [3, 18] of the same molecule?
**A.** 15

**Q.** And the “Plant response rating, Bromegrass, Downy” value [3, 19]?
**A.** 20

**Q.** What about the “Plant response rating, Bromegrass, Downy” value [3, 20] of the same molecule?
**A.** 0

**Q.** And the “Chamomile plant response rating” value [4, 14]?
**A.** 85

**Q.** And the “Plant response rating, Chamomile” value [4, 15]?
**A.** 100

**Q.** And the “Plant response rating, Chamomile” value [4, 16]?
**A.** 100

**Q.** And the “Plant response rating (scale of 0 to 100), Chamomile” value ([4]; Preemergence, 31 g ai/ha)?
**A.** 60

**Q.** What about the “Plant response rating, Chamomile” value [4, 17] of the same molecule?
**A.** 100

**Q.** And the “Plant response rating, Chamomile” value [4, 18]?
**A.** 100

**Q.** And the “Plant response rating, Chamomile” value [4, 19]?
**A.** 100

**Q.** And the “Plant response rating, Chamomile” value [4, 20]?
**A.** 100

**Q.** And the “Field Poppy plant response rating” value [5, 14]?
**A.** 85

**Q.** And the “Plant response rating, Field Poppy” value [5, 15]?
**A.** 90

**Q.** And the “Plant response rating, Field Poppy” value [5, 16]?
**A.** 100

**Q.** And the “Plant response rating (scale of 0 to 100), Field Poppy” value ([5]; Preemergence, 31 g ai/ha)?
**A.** 0

**Q.** And the “Plant response rating, Field Poppy” value [5, 17]?
**A.** 0

**Q.** What about the “Plant response rating, Field Poppy” value [5, 18] of the same molecule?
**A.** 100

**Q.** What about the “Plant response rating, Field Poppy” value [5, 19] of the same molecule?
**A.** 100

**Q.** What about the “Plant response rating, Field Poppy” value [5, 20] of the same molecule?
**A.** 80

**Q.** And the “Canarygrass plant response rating” value [6, 14]?
**A.** 0

**Q.** And the “Plant response rating, Canarygrass” value [6, 15]?
**A.** 0

**Q.** What about the “Plant response rating, Canarygrass” value [6, 16] of the same molecule?
**A.** 0

**Q.** And the “Plant response rating (scale of 0 to 100), Canarygrass” value ([6]; Preemergence, 31 g ai/ha)?
**A.** 20

**Q.** And the “Plant response rating, Canarygrass” value [6, 17]?
**A.** 25

**Q.** And the “Plant response rating, Canarygrass” value [6, 18]?
**A.** 25

**Q.** What about the “Plant response rating, Canarygrass” value [6, 19] of the same molecule?
**A.** 35

**Q.** And the “Plant response rating, Canarygrass” value [6, 20]?
**A.** 0

**Q.** What about the “Buckwheat, Wild plant response rating” value [7, 14] of the same molecule?
**A.** 100

**Q.** And the “Plant response rating, Buckwheat, Wild” value [7, 15]?
**A.** 100

**Q.** And the “Plant response rating, Buckwheat, Wild” value [7, 16]?
**A.** 100

**Q.** What about the “Plant response rating (scale of 0 to 100), Buckwheat, Wild” value ([7]; Preemergence, 31 g ai/ha) of the same molecule?
**A.** 20

**Q.** And the “Plant response rating, Buckwheat, Wild” value [7, 17]?
**A.** 20

**Q.** And the “Plant response rating, Buckwheat, Wild” value [7, 18]?
**A.** 55

**Q.** What about the “Plant response rating, Buckwheat, Wild” value [7, 19] of the same molecule?
**A.** 100

**Q.** And the “Plant response rating, Buckwheat, Wild” value [7, 20]?
**A.** 100

**Q.** What about the “Galium plant response rating” value [8, 14] of the same molecule?
**A.** 90

**Q.** What about the “Plant response rating, Galium” value [8, 15] of the same molecule?
**A.** 98

**Q.** What about the “Plant response rating, Galium” value [8, 16] of the same molecule?
**A.** 100

**Q.** And the “Plant response rating (scale of 0 to 100), Galium” value ([8]; Preemergence, 31 g ai/ha)?
**A.** 70

**Q.** What about the “Plant response rating, Galium” value [8, 17] of the same molecule?
**A.** 100

**Q.** And the “Plant response rating, Galium” value [8, 18]?
**A.** 90

**Q.** And the “Plant response rating, Galium” value [8, 19]?
**A.** 95

**Q.** What about the “Plant response rating, Galium” value [8, 20] of the same molecule?
**A.** 95

**Q.** What about the “Chickweed plant response rating” value [9, 14] of the same molecule?
**A.** 90

**Q.** And the “Plant response rating, Chickweed” value [9, 15]?
**A.** 90

**Q.** What about the “Plant response rating, Chickweed” value [9, 16] of the same molecule?
**A.** 100

**Q.** And the “Plant response rating (scale of 0 to 100), Chickweed” value ([9]; Preemergence, 31 g ai/ha)?
**A.** 98

**Q.** And the “Plant response rating, Chickweed” value [9, 17]?
**A.** 98

**Q.** And the “Plant response rating, Chickweed” value [9, 18]?
**A.** 100

**Q.** And the “Plant response rating, Chickweed” value [9, 19]?
**A.** 100

**Q.** And the “Plant response rating, Chickweed” value [9, 20]?
**A.** 100

**Q.** What about the “Blackgrass plant response rating” value [10, 14] of the same molecule?
**A.** 10

**Q.** And the “Plant response rating, Blackgrass” value [10, 15]?
**A.** 15

**Q.** What about the “Plant response rating, Blackgrass” value [10, 16] of the same molecule?
**A.** 40

**Q.** What about the “Plant response rating (scale of 0 to 100), Blackgrass” value ([10]; Preemergence, 31 g ai/ha) of the same molecule?
**A.** 20

**Q.** What about the “Plant response rating, Blackgrass” value [10, 17] of the same molecule?
**A.** 20

**Q.** And the “Plant response rating, Blackgrass” value [10, 18]?
**A.** 65

**Q.** And the “Plant response rating, Blackgrass” value [10, 19]?
**A.** 65

**Q.** And the “Plant response rating, Blackgrass” value [10, 20]?
**A.** 15

**Q.** And the “Speedwell plant response rating” value [11, 14]?
**A.** 70

**Q.** And the “Plant response rating, Speedwell” value [11, 15]?
**A.** 100

**Q.** And the “Plant response rating, Speedwell” value [11, 16]?
**A.** 100

**Q.** What about the “Plant response rating (scale of 0 to 100), Speedwell” value ([11]; Preemergence, 31 g ai/ha) of the same molecule?
**A.** 50

**Q.** What about the “Plant response rating, Speedwell” value [11, 17] of the same molecule?
**A.** 100

**Q.** What about the “Plant response rating, Speedwell” value [11, 18] of the same molecule?
**A.** 95

**Q.** What about the “Plant response rating, Speedwell” value [11, 19] of the same molecule?
**A.** 100

**Q.** What about the “Plant response rating, Speedwell” value [11, 20] of the same molecule?
**A.** 85

**Q.** And the “Lambsquarters plant response rating” value [12, 14]?
**A.** 75

**Q.** And the “Plant response rating, Lambsquarters” value [12, 15]?
**A.** 75

**Q.** And the “Plant response rating, Lambsquarters” value [12, 16]?
**A.** 90

**Q.** What about the “Plant response rating (scale of 0 to 100), Lambsquarters” value ([12]; Preemergence, 31 g ai/ha) of the same molecule?
**A.** 35

**Q.** And the “Plant response rating, Lambsquarters” value [12, 17]?
**A.** 90

**Q.** What about the “Plant response rating, Lambsquarters” value [12, 18] of the same molecule?
**A.** 100

**Q.** And the “Plant response rating, Lambsquarters” value [12, 19]?
**A.** 100

**Q.** And the “Plant response rating, Lambsquarters” value [12, 20]?
**A.** 75

**Q.** And the “Ryegrass, Italian plant response rating” value [13, 14]?
**A.** 40

**Q.** And the “Plant response rating, Ryegrass, Italian” value [13, 15]?
**A.** 75

**Q.** And the “Plant response rating, Ryegrass, Italian” value [13, 16]?
**A.** 80

**Q.** And the “Plant response rating (scale of 0 to 100), Ryegrass, Italian” value ([13]; Preemergence, 31 g ai/ha)?
**A.** 85

**Q.** And the “Plant response rating, Ryegrass, Italian” value [13, 17]?
**A.** 85

**Q.** What about the “Plant response rating, Ryegrass, Italian” value [13, 18] of the same molecule?
**A.** 100

**Q.** What about the “Plant response rating, Ryegrass, Italian” value [13, 19] of the same molecule?
**A.** 98

**Q.** What about the “Plant response rating, Ryegrass, Italian” value [13, 20] of the same molecule?
**A.** 50

— patent US10597388B2, “Pyridazinone herbicides” (FMC CORPORATION, priority 2014, dated 2020)
